# Measured values published in patent US5763443A, “MDR resistance treatment and novel pharmaceutically active riminophenazines” (priority 1994, dated 1998).
# Values joined by “and” are separate entries in the source; they are usually repeats but may differ in a detail not shown here. Equal entries are not always repeated. Where two headings read alike, the source gives them in different places.
# Legend:
# [1] = bio-availability (no method given)
# [2] = tested on: MDR leukaemia cell line K562/MMB; assay: cells; conditions: for INCREASED SENSITIVITY K 562/MMB: Table VIII, values equal IC50 NONE / IC50 with VB 3 ng/ml of Table VII, 10080 min; for MDR activity / sensitivity against cell line K562/MMP: compared with known reference compound B4100
# Description: A third cell line (562/MMB) used was a MDR leukemia cell line selected in vitro by progressive exposure to increasing concentrations of vinblastine in order to increase P-glycoprotein expression. This cell line was developed in the Department of Immunology, University of Pretoria from K562 (ATCC CCL 243) supplied by Highveld Biological (Pty) Ltd, Sandton.
# (§1) The general procedure set forth above was followed, i.e. 7 days incubation in the4 presence of doxorubicin at 12,5 ng/ml or vinblastine at 25 or 3 ng/ml.
# (§2) The effects were examined over a seven (7) day exposure to different concentrations of B4119 and B4125 on the sensitivity of a doxorubicin resistant leukaemia cell line (K562/MMB) and a lung carcinoma cell line (H69/LX4) to doxorubicin (dox) and vinblastine (VB) using the MTT assay.
# in vitro = conditions: human, h69/lx4 cells
# Description: (§3) The riminophenazines of the above formula (I), contain an imino group. […] The potency of compounds of the above general formula, as inhibitors of multi-drug resistance, was assessed by sensitization of a P-glycoprotein positive cell line to drugs associated with this form of resistance. A human small cell lung cancer cell line H 69/P as well as a multi-drug resistance (MDR) sub-line H69/LX4 were used. These cell lines were obtained from the Medical Research Council Clinical Oncology and Radiotherapeutics Unit, Hills Road, Cambridge, England. The H69/LX4 line was selected in vitro by progressive exposure to increasing concentrations of doxorubicin in order to increase P-glycoprotein expression.
# (§4) The cell lines used were human small cell lung cancer cell line HP69/P and a multi-drug resistant (MDR) sub-line H69/LX4, both of which were supplied by the MRC Clinical Oncology and Radiotherapeutics Unit, Hills Road, Cambridge, England. The maintenance of the cell lines and drug response assays was done as described by Twentyman et al in British Journal of Cancer Volume 65 pages 335-340. The H69/LX4 line was originally described by Twentyman et al in British Journal of Cancer Volume 53, pages 529-637 (1986).
# (§5) The data in parenthesis represents fold sensitivity compared with the chemotherapeutic agent without the MDR inhibitor.
# (§6) The results obtained, are illustrated graphically in FIGS. 4 to 7 of the accompanying drawings.
# as §1, §2
# [3] = tested on: multi-drug resistant (MDR) lung carcinoma cell line H69/LX4; assay: in vitro; conditions: for IC50: Homo sapiens; for INCREASED SENSITIVITY H69/Lx4: Table VIII, values equal IC50 NONE / IC50 with VB 25 ng/ml of Table VII, 10080 min
# Description: as §3, §4, §5, §6, §1, §2
# H69/LX4 cells = assay: [14C]-vinblastine accumulation in MDR cell line; type: cell-based, human; conditions: 1 hour pretreatment, 30 minutes [14C]-vinblastine
# Description: The effect of riminophenazines on the accumulation of [^14 C]-vinblastine was investigated. For these experiments, both of the above cell lines (H69/LX4 and H69/P) were prepared as described by Coley et al (Biochem. Pharmacal 38, 4467-4475 (1989)). After a 1 hour pretreatment with the MDR reversal agents, cells (1×10^6 /ml) were exposed to […] [^14 C]-vinblastine (1 μCi specific activity) for 30 minutes.
# [4] = tested on: human small cell lung cancer cell line H69/P; assay: MTT assay, 7 day exposure, sensitivity of parent cell line H69/P to chemotherapeutic agents; type: cell-based; conditions: H69/P; CsA 5 μg/ml, clofazimine 1 μg/ml or B669 0.5 μg/ml
# Description: as §3, §4, §5
# [5] = 168 h, read-out: IC 50 H69/Lx4 NONE
# [6] = read-out: IC 50 H69/Lx4 DOX 12 ng/ml
# [7] = read-out: IC 50 H69/Lx4 VB 25 ng/ml
# [8] = H69/LX4, CsA 5 μg/ml, clofazimine 1 μg/ml or B669 0.5 μg/ml
smiles,measurement,setting,value
"CC1(C)CC(N=c2cc3n(-c4cc(Cl)c(Cl)c(Cl)c4)c4ccccc4nc-3cc2Nc2cc(Cl)c(Cl)c(Cl)c2)CC(C)(C)N1 [Compound B4169, N,5-bis(3,4,5-trichiorophenyl)-3,5-dihydro-3-[(2',2',6',6'-tetramethyl-4-piperidyl)-imino]-2-phenazinamine]",bio-availability,[1],good bio-availability
same,INCREASED SENSITIVITY K 562/MMB,[2],24.66
same,MDR activity / sensitivity against cell line K562/MMP,[2],increased substantially and unexpectedly
same,MNTC at 168 h,in vitro,> 12.5 µg/mL
same,MDR reversal properties,"[3]; H69/LX4, with doxorubicin 12,5 ng/ml or vinblastine 25 ng/ml, FIGS. 4 to 7",Very good MDR reversal properties
same,IC50,[3]; [5],1.57 µg/mL
same,IC50,[3]; [6],1.08 µg/mL
same,IC50,[3]; [7],0.213 µg/mL
same,INCREASED SENSITIVITY H69/Lx4,[3],7.36
c1ccc(Nc2cc3nc4ccccc4n(-c4ccccc4)c-3cc2=NC2CCCCC2)cc1 [Compound B669],vinblastine accumulation in the MDR cell line,H69/LX4 cells,significant enhancement
same,IC50,"[2]; Homo sapiens, K562, read-out: IC 50 K562/MMB VB 3 ng/ml, Table VII, with vinblastine 3 ng/ml",0.023 µg/mL
same,INCREASED SENSITIVITY K 562/MMB,[2],6.04
same,MDR activity / sensitivity against cell line K562/MMP,[2],good activity
same,fold sensitivity to Cyclophosphamide compared with agent without MDR inhibitor,[4],1.0 fold
same,fold sensitivity to Daunorubicin compared with agent without MDR inhibitor,[4],1.2 fold
same,fold sensitivity to Doxorubicin compared with agent without MDR inhibitor,[4],1.0 fold
same,fold sensitivity to Etoposide compared with agent without MDR inhibitor,[4],1.2 fold
same,fold sensitivity to Methotrexate compared with agent without MDR inhibitor,[4],1.0 fold
same,fold sensitivity to Mitomycin C compared with agent without MDR inhibitor,[4],0.7 fold
same,fold sensitivity to Vinblastine compared with agent without MDR inhibitor,[4],1.1 fold
same,fold sensitivity to Cyclophosphamide compared with agent without MDR inhibitor,[3]; [8],1.1 fold
same,fold sensitivity to Daunorubicin compared with agent without MDR inhibitor,[3]; [8],2.4 fold
same,fold sensitivity to Doxorubicin compared with agent without MDR inhibitor,[3]; [8],6.9 fold
same,fold sensitivity to Etoposide compared with agent without MDR inhibitor,[3]; [8],14.4 fold
same,fold sensitivity to Methotrexate compared with agent without MDR inhibitor,[3]; [8],0.9 fold
same,fold sensitivity to Mitomycin C compared with agent without MDR inhibitor,[3]; [8],2.5 fold
same,fold sensitivity to Vinblastine compared with agent without MDR inhibitor,[3]; [8],13.7 fold and ~13 fold
same,IC50,[3]; [5],1 µg/mL
same,IC50,[3]; [6],0.996 µg/mL
same,IC50,[3]; [7],0.254 µg/mL
same,INCREASED SENSITIVITY H69/Lx4,[3],3.94
